According to ChEMBL document CHEMBL1137924, “Carbonic anhydrase inhibitors. Inhibition of the beta-class enzyme from the methanoarchaeon Methanobacterium thermoautotrophicum (Cab) with anions” (Bioorg Med Chem Lett, 2004):
“And” between values parts separate entries of the source, which are not always exact repeats. Identical values can stand only once.

Assays:
Carbonic anhydrase 1 = Carbonic anhydrase 1 (Homo sapiens, UniProt P00915)
Carbonic anhydrase [1] = target: T1, Carbonic anhydrase (Methanobacterium thermoautotrophicum, UniProt Q50565); parameters: species or system Methanothermobacter thermautotrophicus str. Delta H
T1 sequence (Q50565 whole entry): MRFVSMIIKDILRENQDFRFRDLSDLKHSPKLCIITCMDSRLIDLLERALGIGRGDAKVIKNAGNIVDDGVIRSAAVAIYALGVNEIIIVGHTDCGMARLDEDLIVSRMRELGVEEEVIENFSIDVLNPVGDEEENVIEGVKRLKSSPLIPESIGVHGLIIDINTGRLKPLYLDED

Carbonic anhydrase [2] = target: T2, Carbonic anhydrase (Methanosarcina thermophila, UniProt P40881); format: functional
T2 sequence (P40881 whole entry): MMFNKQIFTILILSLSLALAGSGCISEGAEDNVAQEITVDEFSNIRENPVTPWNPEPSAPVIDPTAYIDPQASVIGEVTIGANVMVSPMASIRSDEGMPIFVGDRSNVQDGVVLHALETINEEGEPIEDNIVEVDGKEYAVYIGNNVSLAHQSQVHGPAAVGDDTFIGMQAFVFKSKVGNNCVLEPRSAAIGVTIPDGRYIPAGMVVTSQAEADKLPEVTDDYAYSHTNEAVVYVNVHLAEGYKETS
Description: Inhibitory constant against Zn-Cam (Methanosarcina thermophila)

Carbonic anhydrase 2 = Carbonic anhydrase 2 (Homo sapiens, UniProt P00918)
Carbonic anhydrase 4 = Carbonic anhydrase 4 (Homo sapiens, UniProt P22748); experiment: Inhibitory constant against carbonic anhydrase IV
Sequence of Carbonic anhydrase 4 (P22748 whole entry): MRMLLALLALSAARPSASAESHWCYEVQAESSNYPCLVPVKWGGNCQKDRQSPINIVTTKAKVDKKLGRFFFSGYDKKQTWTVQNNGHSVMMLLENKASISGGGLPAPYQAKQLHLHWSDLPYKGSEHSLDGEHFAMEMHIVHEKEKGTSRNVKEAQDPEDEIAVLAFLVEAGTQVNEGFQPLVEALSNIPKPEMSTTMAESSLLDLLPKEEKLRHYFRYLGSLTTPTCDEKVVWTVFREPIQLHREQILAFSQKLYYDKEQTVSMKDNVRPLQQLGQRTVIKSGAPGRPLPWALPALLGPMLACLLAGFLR

Carbonic anhydrase [3] = target: T1, Carbonic anhydrase; experiment: Inhibitory constant against methanoarchaeon Methanobacterium thermoautotrophicum (Cab); parameters: species or system Methanothermobacter thermautotrophicus str. Delta H

Sequence of Carbonic anhydrase 1 (P00915 whole entry): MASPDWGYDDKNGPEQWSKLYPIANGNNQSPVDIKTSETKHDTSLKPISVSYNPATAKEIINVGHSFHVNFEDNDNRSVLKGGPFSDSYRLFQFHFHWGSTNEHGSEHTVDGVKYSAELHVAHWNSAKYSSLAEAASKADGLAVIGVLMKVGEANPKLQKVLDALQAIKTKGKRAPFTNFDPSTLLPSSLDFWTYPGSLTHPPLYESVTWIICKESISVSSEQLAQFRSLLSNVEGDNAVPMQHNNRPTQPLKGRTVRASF

**Q.** Which results are given for `OB(O)c1ccccc1` [PHENYLBORONIC ACID]?
**A.** Ki (Carbonic anhydrase 1): 58.6 mM; Ki (Carbonic anhydrase [1]): 0.2 mM; Ki (Carbonic anhydrase [2]): 0.23 mM

**Q.** Which Ki (Carbonic anhydrase 1) does the source give for `O=[N+]([O-])O` [NITRIC ACID] here?
**A.** 7 mM

**Q.** What about the Ki (Carbonic anhydrase [1]) of the same compound?
**A.** 7.8 mM

**Q.** And the Ki (Carbonic anhydrase [2])?
**A.** 36.5 mM

**Q.** Which results are given for `O[B-](O)(O)c1ccccc1` [OXO(PHENYL)-BORANEDIOL]?
**A.** Ki (Carbonic anhydrase 1): 31.7 mM; Ki (Carbonic anhydrase [1]): 0.33 mM; Ki (Carbonic anhydrase 2): 49.2 mM; Ki (Carbonic anhydrase [2]): 0.15 mM

**Q.** For `NS(N)(=O)=O` [SULFAMIDE], which Ki (Carbonic anhydrase [2]) is on record?
**A.** 0.07 mM

**Q.** With `Cl` [HYDROCHLORIC ACID] as the compound, how does the Ki (Carbonic anhydrase 4) read?
**A.** 36 mM

**Q.** And the Ki (Carbonic anhydrase [3])?
**A.** 152 mM

**Q.** And the Ki (Carbonic anhydrase 1)?
**A.** 6 mM

**Q.** What about the Ki (Carbonic anhydrase [2]) of the same compound?
**A.** > 200 mM

**Q.** Which results are given for `O=C(O)O` [BICARBONATE]?
**A.** Ki (Carbonic anhydrase 4): 44 mM; Ki (Carbonic anhydrase [1]): 44.9 mM and 9.6 mM; Ki (Carbonic anhydrase [2]): 42 mM and 6.7 mM

**Q.** `O=S(=O)(O)O` [SULFURIC ACID] was tested. Which Ki (Carbonic anhydrase 4) did it give?
**A.** 44 mM

**Q.** What does the source list for `NS(=O)(=O)O` [SULFAMATE]?
**A.** Ki (Carbonic anhydrase 1): 0.02 mM; Ki (Carbonic anhydrase [1]): 44 mM; Ki (Carbonic anhydrase [2]): 9.6 mM

**Q.** Which results are given for `S` [HYDROGEN SULFIDE]?
**A.** Ki (Carbonic anhydrase 1): 0.0006 mM; Ki (Carbonic anhydrase [1]): 0.7 mM; Ki (Carbonic anhydrase [2]): 0.05 mM

**Q.** With `Br` [BROMIDE] as the compound, how does the Ki (Carbonic anhydrase 4) read?
**A.** 52 mM

**Q.** What about the Ki (Carbonic anhydrase [3]) of the same compound?
**A.** 42.1 mM

**Q.** What about the Ki (Carbonic anhydrase 1) of the same compound?
**A.** 4 mM

**Q.** What about the Ki (Carbonic anhydrase [2]) of the same compound?
**A.** 160 mM

**Q.** For `O=NO` [NITROUS ACID], which Ki (Carbonic anhydrase [1]) is on record?
**A.** 44.8 mM

**Q.** What about the Ki (Carbonic anhydrase [2]) of the same compound?
**A.** 6.8 mM

**Q.** With `N#CS` [THIOCYANIC ACID] as the compound, how does the Ki (Carbonic anhydrase [2]) read?
**A.** 7 mM

**Q.** How did the Ki (Carbonic anhydrase 4) turn out when `I` [IODIDE] was run?
**A.** 11 mM

**Q.** What about the Ki (Carbonic anhydrase [3]) of the same compound?
**A.** 13.2 mM

**Q.** What about the Ki (Carbonic anhydrase 1) of the same compound?
**A.** 0.3 mM

**Q.** What about the Ki (Carbonic anhydrase [2]) of the same compound?
**A.** 160 mM
